Target: Bromodomain-containing protein 4 (Homo sapiens, UniProt O60885)
Experiment: Inhibition of BRD4 bromodomain 2 (unknown origin) in HEK293 cells cotransfected with eGFP by flow cytometry based mCherry reporter gene analysis
Format: cell-based

Compound	IC50
Nc1ccnc2c(C(=O)NC3CCC(=O)NC3=O)cccc12 (stereo not given)	7.7 µM
CN(c1ccccc1)c1nccc(NCC(=O)Nc2cccc3c2CN(C2CCC(=O)NC2=O)C3=O)n1 (stereo not given)	3.44 µM
O=C1CCC(N2Cc3c(NC(=O)CNc4ccnc(N5CCC[C@@H]5CO)n4)cccc3C2=O)C(=O)N1 (stereo not given in full)	1.6 µM
O=C1CCC(N2Cc3c(NC(=O)CNc4ccnc(N5CCN(c6cccc(C(F)(F)F)c6)CC5)n4)cccc3C2=O)C(=O)N1 (stereo not given)	0.517 µM
Nc1ccc(C(=O)NC2CCC(=O)NC2=O)c2ncccc12 (stereo not given)	2.9 µM

Source: ChEMBL document CHEMBL4616687, “Ligand Design for Cereblon Based Immunomodulatory Therapy” (ACS Med Chem Lett, 2020)
